Test results published in BindingDB's records for PubMed 12232544 (Emory University, 2002).
Where “and” joins values, the source holds several entries; their conditions need not be identical. Equal entries are not always repeated. Structures can show the parent of a compound that is named as a salt.

Tests used:
[1] = target: Histamine H1 receptor (Cavia porcellus, UniProt P31389)
[2] = target: T1, Alpha-1A adrenergic receptor (Homo sapiens, UniProt P35348)
T1 sequence (P35348 whole entry): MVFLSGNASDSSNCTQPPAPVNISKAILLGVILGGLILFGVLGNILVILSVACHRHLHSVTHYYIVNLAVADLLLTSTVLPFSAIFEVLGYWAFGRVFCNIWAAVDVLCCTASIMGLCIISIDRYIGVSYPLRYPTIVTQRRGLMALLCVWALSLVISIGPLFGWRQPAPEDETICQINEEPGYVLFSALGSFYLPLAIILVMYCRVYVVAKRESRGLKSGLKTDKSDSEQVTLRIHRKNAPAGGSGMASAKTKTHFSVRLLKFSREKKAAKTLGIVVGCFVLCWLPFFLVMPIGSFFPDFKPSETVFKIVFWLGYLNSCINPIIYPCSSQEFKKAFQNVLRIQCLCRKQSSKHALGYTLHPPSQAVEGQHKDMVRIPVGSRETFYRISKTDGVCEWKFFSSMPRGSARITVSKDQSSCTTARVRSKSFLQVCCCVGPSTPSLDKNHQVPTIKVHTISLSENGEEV

[3] = target: T2, 5-hydroxytryptamine receptor 2C (Sus scrofa, UniProt K7GSR7)
T2 sequence (K7GSR7 whole entry): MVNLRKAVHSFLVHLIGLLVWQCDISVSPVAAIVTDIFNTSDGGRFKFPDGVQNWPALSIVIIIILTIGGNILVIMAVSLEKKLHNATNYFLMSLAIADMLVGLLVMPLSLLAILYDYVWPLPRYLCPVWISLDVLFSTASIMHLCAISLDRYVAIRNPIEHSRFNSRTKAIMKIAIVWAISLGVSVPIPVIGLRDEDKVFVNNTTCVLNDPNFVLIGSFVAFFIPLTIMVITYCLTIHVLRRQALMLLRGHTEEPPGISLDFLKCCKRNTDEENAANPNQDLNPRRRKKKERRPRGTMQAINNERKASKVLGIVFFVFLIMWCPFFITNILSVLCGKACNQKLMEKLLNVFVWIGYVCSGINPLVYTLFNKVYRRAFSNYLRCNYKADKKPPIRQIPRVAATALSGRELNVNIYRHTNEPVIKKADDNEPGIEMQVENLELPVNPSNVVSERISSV

Histamine H1 receptor, sequence (P31389 whole entry): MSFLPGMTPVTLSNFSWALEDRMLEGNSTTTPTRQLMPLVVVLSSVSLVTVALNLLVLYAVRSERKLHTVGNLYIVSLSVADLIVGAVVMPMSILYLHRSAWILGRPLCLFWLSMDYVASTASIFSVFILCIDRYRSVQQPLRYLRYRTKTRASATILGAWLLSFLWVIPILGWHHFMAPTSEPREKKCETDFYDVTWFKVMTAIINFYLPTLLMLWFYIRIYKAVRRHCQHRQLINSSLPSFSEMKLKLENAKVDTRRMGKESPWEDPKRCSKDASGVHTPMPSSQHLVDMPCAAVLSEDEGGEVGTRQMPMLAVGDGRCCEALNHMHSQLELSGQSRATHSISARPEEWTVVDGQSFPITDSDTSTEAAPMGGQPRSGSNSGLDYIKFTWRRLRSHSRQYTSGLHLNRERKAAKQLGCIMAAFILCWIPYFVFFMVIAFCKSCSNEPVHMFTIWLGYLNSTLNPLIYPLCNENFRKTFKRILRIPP

Row | Compound | Ki [1] | Ki [2] [nM] | Ki [3]
1 | CNCC[C@@H](Oc1ccc(C(F)(F)F)cc1)c1ccccc1 [Fluoxetine-R-(-)] | 812 nM |  | 
2 | CN[C@@H]1CC[C@@H](c2ccc(Cl)c(Cl)c2)c2ccccc21 [[4-(3,4-Dichloro-phenyl)-1,2,3,4-tetrahydro-naphthalen-1-yl]-methyl-amine] | 6580 nM | 188 | 2300 nM
3 | CN(C)CCC[C@]1(c2ccc(F)cc2)OCc2cc(C#N)ccc21 [R-citalopram] | 181 nM |  | 1800 nM
4 | Fc1ccc([C@@H]2CCNC[C@H]2COc2ccc3c(c2)OCO3)cc1 [PAROXETINE] | > 10000 nM |  | 9030 nM
5 | CNCC[C@@H](Oc1ccc(C(F)(F)F)cc1)c1ccccc1 [Prozac] | 1550 nM |  | 
6 | COCCCC/C(=N\OCCN)c1ccc(C(F)(F)F)cc1 [(1E)-5-methoxy-1-[4-(trifluoromethyl)phenyl]pentan-1-one O-(2-aminoethyl)oxime] | > 10000 nM |  | 5790 nM
7 | CN(C)CCCC1(c2ccc(F)cc2)OCc2cc(C#N)ccc21 (stereo not drawn) [CITALOPRAM HYDROBROMIDE] | 283 nM and 1970 nM |  | 2050 nM and 2530 nM
